Experimental data taken from patent publication US20140350273A1, “PEDIATRIC USES OF CABAZITAXEL” (AVENTIS PHARMA S.A., priority 2012, published 2014).
Read-outs that look alike come from different tables or passages of the source.

Tested on: human osteosarcoma DM113
Type: in vivo
Conditions: for Tumor Volume Data (Day 28) Median / ΔT/ΔC %: day 28; for MTTE / T-C: volume endpoint 1600 mm^3
Procedure: The resultant solution contains 10 mg/mL of cabazitaxel. Stock solution of cabazitaxel was then diluted in 0.9% sodium chloride.
This efficacy may be quantified, for example, as changes in tumor volume for each treated (T) and control (C) group, which are calculated for each animal and each day by subtracting the tumor volume on the day of first treatment (staging day) from the tumor volume on the specified observation day. This allows calculating the tumor growth inhibition: ΔT/ΔC=(median delta T/median delta C)×100. Individual tumor volume changes from baseline are thereafter analyzed by a non-parametric two-way ANOVA-TYPE (with factors: group and repeated days) followed by a post-hoc contrasts analysis, with Bonferroni-Holm adjustment for multiplicity, comparing all treated groups to the control group. […] A probability less than 5% (p<0.05) was considered as significant.
Based on the National Cancer Institute (NCl) standards, a ΔT/ΔC≦40% is the minimal level required to declare activity.
This efficacy may also be quantified by the number of tumor regressions observed after therapy. Individual mice reporting a tumor volume ≦50% of the Day 0 measurement for two consecutive measurements over a seven day period were considered partial responders (PR). Individual mice lacking palpable tumors (<4×4 mm^2 for two consecutive measurements over a seven day period) were classified as complete responders (CR); a CR that persisted until study completion was considered a tumor-free survivor (TFS).
Efficacy could also be determined at study completion, using tumor growth delay (T-C) in days, which is calculated using the median time to endpoint (MTTE) value for each treatment (T) group versus control (C). A Log Rank multiple comparison test with Bonferroni-Holm adjustment for multiplicity was applied on individual TTE to compare the treated groups to the control group.
The animals subjected to the experiment are subcutaneously grafted unilaterally with approximately 30 mg of a tumor fragment from low passage pediatric patient-derived tumor xenografts. The animals are implanted with a human patient-derived pediatric tumor xenografted in immuno-compromised mice (Harlan; nu/nu). Several days post tumor implantation, mice are randomized according to their tumor burden to the different groups of treatments and controls. The agents are dosed intravenously at 5.8, 9.3, 15 or 24.2 mg/kg every 4 days for a total of 3 doses (q4d×3) to mice bearing a tumor burden at start of therapy (day 0) ranged from 125 to 250 mm^3.
Beginning Day 0, animals were observed daily and weighed twice weekly using a digital scale; data including individual and mean gram weights (Mean We±SD), mean percent weight change versus Day 0 were recorded for each group. Animal deaths were recorded daily and designated as drug-related (D), technical (T), tumor related (B), or unknown (U) based on weight loss and gross observation; single agent or combination groups reporting a mean >20% for a period of 7 days and/or >10% mortality were considered above the maximum tolerated dose (MTD) for that treatment on the evaluated regimen.
The selected tumor model, DM113, was a low passage patient-derived tumor xenograft derived from an osteosarcoma taken from the lung of a patient.
The following end points were used: • Toxicity was declared at dosages inducing ≧20% body weight loss or ≧10% drug death; • Antitumor efficacy was determined by calculating the ΔT/ΔC value in percent on day 28 post treatment initiation, according to the above mentioned formula; • Individual tumor volume changes from baseline were analyzed by a non-parametric two-way ANOVA-TYPE (with factors: group and repeated day from 3 to 28) followed by a post-hoc contrasts analysis, with Bonferroni-Holm adjustment for multiplicity, comparing all treated groups to the control group on day 28. […] The volume endpoint for T-C calculations was chosen to be 1600 mm^3.

CO[C@H]1C(=O)[C@]2(C)[C@@H](OC)C[C@H]3OC[C@@]3(OC(C)=O)[C@H]2[C@H](OC(=O)c2ccccc2)[C@]2(O)C[C@H](OC(=O)[C@H](O)[C@@H](NC(=O)OC(C)(C)C)c3ccccc3)C(C)=C1C2(C)C [Cabazitaxel, 4α-acetoxy-2α-benzoyloxy-5β,20-epoxy-1β-hydroxy-7β,10β-dimethoxy-9-oxo-11-taxen-13α-yl (2R,3S)-3-tert-butoxycarbonyl-amino-2-hydroxy-3-phenylpropionate]
#CR (5.8 mg/kg i.v./q4dx3): 0/0/0
#PR (5.8 mg/kg i.v./q4dx3): 0/0/0
#TFS (5.8 mg/kg i.v./q4dx3): 0/0/0
Drug Deaths Total (5.8 mg/kg i.v./q4dx3): 0
Tumor Volume Data (Day 28) Median (5.8 mg/kg i.v./q4dx3): 512.5 mm^3
ΔT/ΔC % (5.8 mg/kg i.v./q4dx3): 29.4%
MTTE (5.8 mg/kg i.v./q4dx3): 47 days
T-C (5.8 mg/kg i.v./q4dx3): 16 days
tumor volume changes from baseline, Median +/− MAD (5.8 mg/kg, DAY 3): 58 +/− 21.5
tumor volume changes from baseline, Median +/− MAD (5.8 mg/kg, DAY 8): 63.5 +/− 37
tumor volume changes from baseline, Median +/− MAD (5.8 mg/kg, DAY 11): 63.5 +/− 21.5
tumor volume changes from baseline, Median +/− MAD (5.8 mg/kg, DAY 14): 95 +/− 41.5
tumor volume changes from baseline, Median +/− MAD (5.8 mg/kg, DAY 17): 95 +/− 59
tumor volume changes from baseline, Median +/− MAD (5.8 mg/kg, DAY 21): 158.5 +/− 39.5
tumor volume changes from baseline, Median +/− MAD (5.8 mg/kg, DAY 24): 234 +/− 83.5
tumor volume changes from baseline, Median +/− MAD (5.8 mg/kg, DAY 28): 334.5 +/− 96
tumor volume changes from baseline, Median +/− MAD (5.8 mg/kg, DAY 31): 459.5 +/− 123
tumor volume changes from baseline, Median +/− MAD (5.8 mg/kg, DAY 35): 579.5 +/− 228
tumor volume changes from baseline, Median +/− MAD (5.8 mg/kg, DAY 38): 834.5 +/− 245
tumor volume changes from baseline, Median +/− MAD (5.8 mg/kg, DAY 42): 1097 +/− 248
tumor volume changes from baseline, Median +/− MAD (5.8 mg/kg, DAY 46): 1548.5 +/− 438.5
#CR (9.3 mg/kg i.v./q4dx3): 0/0/0
#PR (9.3 mg/kg i.v./q4dx3): 0/0/0
#TFS (9.3 mg/kg i.v./q4dx3): 0/0/0
Drug Deaths Total (9.3 mg/kg i.v./q4dx3): 0
Weight Nadir % (9.3 mg/kg i.v./q4dx3): −3%
Weight Nadir Day (9.3 mg/kg i.v./q4dx3): 3
Tumor Volume Data (Day 28) Median (9.3 mg/kg i.v./q4dx3): 204 mm^3
ΔT/ΔC % (9.3 mg/kg i.v./q4dx3): 1.8%
MTTE (9.3 mg/kg i.v./q4dx3): >59 days
T-C (9.3 mg/kg i.v./q4dx3): >28 days
tumor volume changes from baseline, Median +/− MAD (9.3 mg/kg, DAY 3): 29.5 +/− 27
tumor volume changes from baseline, Median +/− MAD (9.3 mg/kg, DAY 8): 29.5 +/− 29.5
tumor volume changes from baseline, Median +/− MAD (9.3 mg/kg, DAY 11): 29.5 +/− 29.5
tumor volume changes from baseline, Median +/− MAD (9.3 mg/kg, DAY 14): 9 +/− 9
tumor volume changes from baseline, Median +/− MAD (9.3 mg/kg, DAY 17): 0 +/− 0
tumor volume changes from baseline, Median +/− MAD (9.3 mg/kg, DAY 21): 0 +/− 9
tumor volume changes from baseline, Median +/− MAD (9.3 mg/kg, DAY 24): 0 +/− 31
tumor volume changes from baseline, Median +/− MAD (9.3 mg/kg, DAY 28): 20 +/− 39.5
tumor volume changes from baseline, Median +/− MAD (9.3 mg/kg, DAY 31): 69 +/− 69
tumor volume changes from baseline, Median +/− MAD (9.3 mg/kg, DAY 35): 87.5 +/− 70.5
tumor volume changes from baseline, Median +/− MAD (9.3 mg/kg, DAY 38): 182 +/− 155.5
tumor volume changes from baseline, Median +/− MAD (9.3 mg/kg, DAY 42): 311 +/− 248
tumor volume changes from baseline, Median +/− MAD (9.3 mg/kg, DAY 46): 576 +/− 317.5
#CR (15 mg/kg i.v./q4dx3): 0
#PR (15 mg/kg i.v./q4dx3): 4
#TFS (15 mg/kg i.v./q4dx3): 0
Drug Deaths Total (15 mg/kg i.v./q4dx3): 0
Weight Nadir % (15 mg/kg i.v./q4dx3): −9%
Weight Nadir Day (15 mg/kg i.v./q4dx3): 14
Tumor Volume Data (Day 28) Median (15 mg/kg i.v./q4dx3): 131 mm^3
ΔT/ΔC % (15 mg/kg i.v./q4dx3): −4.4%
MTTE (15 mg/kg i.v./q4dx3): >59 days
T-C (15 mg/kg i.v./q4dx3): >28 days
numbers of PR (15 mg/kg q4d×3 IV): 4/10
tumor volume changes from baseline, Median +/− MAD (15 mg/kg, DAY 3): 13 +/− 13
tumor volume changes from baseline, Median +/− MAD (15 mg/kg, DAY 8): 0 +/− 0
tumor volume changes from baseline, Median +/− MAD (15 mg/kg, DAY 11): −23.5 +/− 23.5
tumor volume changes from baseline, Median +/− MAD (15 mg/kg, DAY 14): −40.5 +/− 30
tumor volume changes from baseline, Median +/− MAD (15 mg/kg, DAY 17): −40.5 +/− 30
tumor volume changes from baseline, Median +/− MAD (15 mg/kg, DAY 21): −40.5 +/− 30
tumor volume changes from baseline, Median +/− MAD (15 mg/kg, DAY 24): −50 +/− 36.5
tumor volume changes from baseline, Median +/− MAD (15 mg/kg, DAY 28): −50 +/− 36.5
tumor volume changes from baseline, Median +/− MAD (15 mg/kg, DAY 31): −53 +/− 36.5
tumor volume changes from baseline, Median +/− MAD (15 mg/kg, DAY 35): −59.5 +/− 29
tumor volume changes from baseline, Median +/− MAD (15 mg/kg, DAY 38): −59.5 +/− 39.5
tumor volume changes from baseline, Median +/− MAD (15 mg/kg, DAY 42): −59.5 +/− 39.5
tumor volume changes from baseline, Median +/− MAD (15 mg/kg, DAY 46): −59.5 +/− 42.5
#CR (24.2 mg/kg i.v./q4dx3): 0
#PR (24.2 mg/kg i.v./q4dx3): 5
#TFS (24.2 mg/kg i.v./q4dx3): 0
Drug Deaths Total (24.2 mg/kg i.v./q4dx3): 0
Weight Nadir % (24.2 mg/kg i.v./q4dx3): −11%
Weight Nadir Day (24.2 mg/kg i.v./q4dx3): 11
Tumor Volume Data (Day 28) Median (24.2 mg/kg i.v./q4dx3): 112 mm^3
ΔT/ΔC % (24.2 mg/kg i.v./q4dx3): −3.6%
MTTE (24.2 mg/kg i.v./q4dx3): >59 days
T-C (24.2 mg/kg i.v./q4dx3): >28 days
numbers of PR (24.2 mg/kg q4d×3 IV): 5/10
tumor volume changes from baseline, Median +/− MAD (24.2 mg/kg, DAY 3): 9.5 +/− 9.5
tumor volume changes from baseline, Median +/− MAD (24.2 mg/kg, DAY 8): 0 +/− 26.5
tumor volume changes from baseline, Median +/− MAD (24.2 mg/kg, DAY 11): −40.5 +/− 34
tumor volume changes from baseline, Median +/− MAD (24.2 mg/kg, DAY 14): −43.5 +/− 28.5
tumor volume changes from baseline, Median +/− MAD (24.2 mg/kg, DAY 17): −40.5 +/− 24.5
tumor volume changes from baseline, Median +/− MAD (24.2 mg/kg, DAY 21): −40.5 +/− 24.5
tumor volume changes from baseline, Median +/− MAD (24.2 mg/kg, DAY 24): −40.5 +/− 40.5
tumor volume changes from baseline, Median +/− MAD (24.2 mg/kg, DAY 28): −40.5 +/− 40.5
tumor volume changes from baseline, Median +/− MAD (24.2 mg/kg, DAY 31): −40.5 +/− 34
tumor volume changes from baseline, Median +/− MAD (24.2 mg/kg, DAY 35): −51 +/− 41.5
tumor volume changes from baseline, Median +/− MAD (24.2 mg/kg, DAY 38): −51 +/− 41.5
tumor volume changes from baseline, Median +/− MAD (24.2 mg/kg, DAY 42): −51 +/− 41.5
tumor volume changes from baseline, Median +/− MAD (24.2 mg/kg, DAY 46): −51 +/− 41.5
antitumor activity compared with docetaxel (conclusion of example 5, 9.3, 15 and 24.2 mg/kg dose levels): higher efficacy than docetaxel
